Earlier results as cited in patent US11753409B2, “Crystalline salts of a B-RAF kinase inhibitor” (Xynomic Pharmaceuticals, Inc., priority 2017, dated 2023).

Legend:
[1] = tested on: human B-RAF-mutant melanoma cells; conditions: cited from earlier work
A375 melanoma = conditions: particularly in combination with trametinib; cited from earlier work
[2] = treated mice; cited from earlier work
[3] = tested on: B-RAF-mutant melanomas and colorectal carcinomas; conditions: cited from earlier work
[4] = rats, up to 60 mg/kg daily for 2 weeks; cited from earlier work
wild-type cells = conditions: at 1,000 nmol/L; cited from earlier work

CCCS(=O)(=O)Nc1ccc(F)c(-n2cc(-c3cncnc3)c3nc(N(C)C4CCN(CC)CC4)ccc32)c1F [BI 882370, N-(3-(5-((1-ethylpiperidin-4-yl)(methyl)amino)-3-(pyrimidin-5-yl)-1H-pyrrolo[3,2-b]pyridin-1-yl)-2,4-difluorophenyl)propane-1-sulfonamide]
Potency, inhibition of proliferation [1]: 1 to 10 nmol/L
Potency relative to vemurafenib ([1]; higher potency than vemurafenib): 100 times
Activity in vemurafenib-resistant model (A375 melanoma): active
Body weight loss or clinical signs of intolerability [2]: did not show any body weight loss or clinical signs of intolerability
Pathologic changes in several major organs, including skin [2]: no pathologic changes were observed
Efficacy compared with vemurafenib, dabrafenib, or trametinib ([3]; 25 mg/kg twice daily, oral): superior efficacy
Efficacy in mouse models ([3]; solution administered orally): efficacious
Toxicity (clinical chemistry, hematology, pathology, toxicogenomics) [4]: lacked toxicity
Effect on wild-type cells (wild-type cells): not affected
